Reference: a melting point compilation (Tetko et al.; mined from patent text by program, amines drawn as free bases though some values may be those of a salt)

SMILES | melting point
O=c1c2ccccc2ncn1C1CCN(CCCc2ccccc2)CC1 | 107 to 108 °C
NC(=O)NN=Cc1ccc(Oc2ccc([N+](=O)[O-])cc2)cc1 | 221 to 222 °C
CCC1(CCCCCN2CCN(c3ccccn3)CC2)C(=O)Nc2ccccc21 (stereo unspecified) | 127 to 128 °C
CS(=O)(=O)c1ccc(-c2sc(-c3ccccc3Cl)nc2-c2ccc(F)cc2)cc1 | 133 to 134 °C
CC(C)OC(=O)c1cc(-n2c(=O)[nH]c3c(c2=O)CCC3)c(Cl)cc1Cl | 186 to 189 °C
CNC(=O)C(C)Oc1ncn(-c2ccc(Br)cc2)n1 (stereo unspecified) | 176 to 178 °C
COc1ccc(CCNS(=O)(=O)c2ccc(N)cc2)cc1 | 144 to 146 °C
COc1ccc(C2=NN(C3CCN(C(=O)CN4C(=O)CCC4=O)CC3)C(=O)C(C)(C)C2)cc1OC | 177 to 179 °C
Cc1oc(-c2cc(C(C)(C)C)c(O)c(C(C)(C)C)c2)nc1CC(=O)O | 205 to 206 °C
CCOc1ccc(S(=O)c2ccccc2)cc1[N+](=O)[O-] (stereo unspecified) | 119 to 121 °C
CC(C)(C)[Si](C)(C)O[C@H]1C=C(I)C(=O)C1 | 38.5 °C
Fc1ccc(-c2nc3ccc(N4CCN(C5CC5)CC4)nn3c2-c2ccnnc2)cc1 | 206 to 209 °C
COCCOc1ccc(/C=C(\C)C(=O)O)c(Oc2ncc(Cl)cc2Cl)c1 | 126 to 127 °C
O=C(Nc1ccncc1)c1c(OCC2CC2)ccc2oc3ccccc3c12 | 243 to 244 °C
NCC1CCc2[nH]c3cc(Cl)c(F)cc3c2C1 (stereo unspecified) | 180 to 181 °C
C/C(=C\c1ccc(C(=O)O)cc1)c1ccc2c(c1)N(C)CCN2C | 203 to 205 °C
COC(=O)c1ccc(C#CC(=O)c2ccc3c(c2)C(C)(C)CCC3(C)C)cc1 | 113 to 114 °C
CCCCn1ncc(/C=C(\Cc2cc3c(cc2OC)CCO3)C(=O)OCC)c1-c1ccc(Cl)cc1O | 158 to 160 °C
CS(=O)(=O)c1ccc(-n2cnc(Cl)c2-c2ccc(OC(F)(F)F)cc2)cc1 | 136 to 138 °C
CC(C)[C@H](NC(=O)CCC(=O)c1ccc(F)cc1)C(=O)O | 103 to 105 °C
O=C(c1ccc(Nc2ccnc3cc(C(F)(F)F)ccc23)cc1)N1CCN(c2c(Cl)c(Cl)nc(Cl)c2Cl)CC1 | 222 to 224 °C
COc1ccc(N2CCN(c3ccc(-n4cn[nH]c4=O)cc3)CC2)cc1 | 300 °C
Cc1c(CP(=O)(OCCCl)OCCCl)cc(C(C)(C)C)c(O)c1C | 133 to 135 °C
CCOC(=O)CC(NCc1ccccc1)=C(C(C)=O)C(=O)OCC | 87 to 88 °C
Nc1n[nH]cc1S(=O)(=O)c1ccccc1 | 159 to 161 °C
COc1ccc(Oc2ccn3nc(-c4ccccc4)c(-c4ccc(=O)n(C(C)C)n4)c3c2)nc1 | 148 to 150 °C

SMILES | melting point
CCCCN(C)C(=O)CS(=O)CCCCCOc1ccc(C2=C(c3ccccc3)CCCc3cc(O)ccc32)cc1 (stereo unspecified) | 87 to 89 °C
O=C(O)CCNC(=O)C(CS)C(F)(F)F (stereo unspecified) | 108 to 110 °C
Oc1ccccc1-n1cnc(-c2ccccc2)n1 | 148 to 154 °C
Cc1ncc(C#N)c(Nc2cccc3[nH]ccc23)c1-c1ccc(OCCCl)cc1 | 185 to 186 °C
Nc1ncnc2c1nc(O)n2Cc1ccc(F)cc1 | 270 to 272 °C
CC(=O)NCC1CN=C(c2cc3cccc(N(C)S(=O)(=O)c4cccs4)c3[nH]2)S1 (stereo unspecified) | 212 to 213 °C
CCC(=NOc1ccc(F)cc1)c1cc(Cl)ccc1NS(=O)(=O)C(F)(F)F | 47 to 48 °C
ClC1(c2cccs2)CC1c1ccccc1 (stereo unspecified) | 61 to 63 °C
COC(=O)c1cc(Br)c(Br)o1 | 56 to 57 °C
CCOCc1nc2c(N)nc3ccccc3c2n1CC1(O)CCC1 | 174 to 175 °C
CC(C)SN(C)C(=O)Nc1ccc(Cl)c(Cl)c1 | 65 °C
O=Cc1cn(C2CCc3ccccc3C2)c(=S)[nH]1 (stereo unspecified) | 206 to 210 °C
CC(C)C1(C)N=C(c2cc3c(nc2C(=O)O)COC3)NC1=O (stereo unspecified) | 115 to 118 °C
COC(=O)Cc1cc2c(s1)NC(=O)C(C)N=C2c1ccccc1Cl (stereo unspecified) | 185 to 190 °C
O=C1c2ccccc2C(=O)N1CCCCSc1nccc(NC(=S)NCC(F)(F)F)n1 | 201 to 202 °C
Nc1ccc(CCC(=O)c2ccc(F)cc2)cc1 | 54 to 55 °C
CCSC1CCC(=O)N1S(=O)(=O)c1ccccc1 (stereo unspecified) | 100 to 113 °C
CC(C)CC(C(=O)c1cccc(Cl)c1)c1ccccc1NC(C)(C)C (stereo unspecified) | 172 to 174 °C
CC(O)COc1cccc([N+](=O)[O-])c1C#N (stereo unspecified) | 121 to 124 °C
Clc1ccc(Cn2cc(CCN=c3sc4ccccc4s3)c3ccccc32)cc1 | 120 to 121 °C
COCOc1ccc(C=CC(=O)c2ccc(OCc3ccccc3)cc2O)c(OCc2ccccc2)c1 | 147 to 148 °C
C1=C(c2ccccc2)CCN(Cc2cc3ccccc3[nH]2)C1 | 128 to 130 °C
COc1ccc(C=Cc2nc3c(c(=O)n(C)c(=O)n3C)n2C)cc1OC | 230 to 232 °C
O=S1CCN(c2nc(N3CCNCC3)cc3c(Cl)cccc23)CC1 | 215 to 217 °C
CN(C(=O)Nc1ccc2ccccc2c1)c1cccc(-c2ccc(CCC(=O)O)cc2)c1 | 170 to 171 °C
Cc1ccc(Sc2c(SCc3ccccc3)cc(C(=O)O)cc2S(=O)(=O)Cl)cc1 | 188 to 190 °C

SMILES | melting point
CCOC(=O)C(C)Oc1ccc(-c2nc(-c3ccc(OC(C)C(=O)OCC)cc3O)nc(-c3ccc(OC(C)C(=O)OCC)cc3O)n2)c(O)c1 (stereo unspecified) | 115 to 120 °C
Cc1nc2c(N)nc3ccccc3c2n1CCCNC(=O)C1CCCC1 | 208 to 209 °C
CC1CC2C3CCC4=CC(=O)C=CC4(C)C3C(=O)CC2(C)C1C(=O)COC(=O)C(C)(C)C (stereo unspecified) | 201 to 202 °C
CCc1nc2c(-c3cc4cc(Br)oc4cc3C)ncnc2n1C(C1CC1)C1CC1 | 177 to 178 °C
COC(=O)CCCc1cc2nc(Cl)ccc2n1S(=O)(=O)c1cccc(-c2ccnc(C)n2)c1 | 140 to 144 °C
C=C(C)C(=O)OCCOc1ccc(/C=C/C(=O)OC)cc1 | 81 to 82 °C
COC(=O)C(O)CCNc1ncc(N)cc1N (stereo unspecified) | 229 to 230 °C
O=c1[nH]c2ccc(F)cc2c2cc(CO)nn12 | 295 to 297 °C
CC(C)(C)COc1ccc(-n2cc(C(=O)O)cn2)cc1C#N | 199 to 200 °C
CCOC(=O)CN(CC(=O)OCC)C(=O)C(=O)c1ccc(OCCCCCCCCCCCCOc2ccccc2)cc1 | 55 to 56 °C
OC(CCc1ccccc1)c1cnc2sc3c(n12)CCCCCC3 (stereo unspecified) | 123 to 124 °C
Cc1[nH]cc2c1-c1ccc(Cl)cc1C(c1ccccc1Cl)=NC2 | 219 to 222 °C
O=C(O)c1ccc(-c2nn(-c3ccc(C(=O)O)cc3)c3ccc([N+](=O)[O-])cc23)cc1 | 348 to 350 °C
Cc1nc(-c2nn(-c3ccccc3)c(=O)cc2Oc2ccccc2)n[nH]1 | 245 to 247 °C
CC(=O)OCc1nc2nc(O)cnc2c(=O)[nH]1 | > 300 °C
CCCCOc1c2ccccc2c(C=O)c2ccccc12 | 65 to 67 °C
CN(C)c1ccc(N(c2ccc(N(C)C)cc2)C2(c3ccc(N(C)C)cc3)OC(=O)c3cc(N(C)C)ccc32)cc1 (stereo unspecified) | 86 to 92 °C
COc1cc(CCCC#N)ccc1OCc1nc(-c2ccco2)oc1C | 94 to 95 °C
CC(C)(C)c1nn(-c2ccc([N+](=O)[O-])cc2Cl)c(=O)o1 | 98 °C
CON=C(C(=O)O)c1cccc(OC)c1 | 97 to 98 °C
N#Cc1cccc(NC(=O)c2cc(-c3ccc(F)cc3F)ccc2O)c1 | 229 to 230 °C
CCCN(c1ccncc1)n1cc(C(C)=O)c2ccccc21 | 81 to 86 °C
Nc1ccccc1C(=O)Nc1nnn[nH]1 | 253 to 254 °C
O=c1cc(-c2ccc(O)c(CO)c2)oc2cccnc12 | 226 to 227 °C
CC(=O)n1c(SC(F)(F)C(F)F)nc(-c2ccccc2)c1-c1ccccc1 | 143 to 144 °C
Nc1nc(OC2CCC2)c2ncn(C3CC(F)C(CO)O3)c2n1 (stereo unspecified) | 139 to 140 °C

SMILES | melting point
C=CCc1ccc2c(c1)CCC2O (stereo unspecified) | 54 °C
C=CCc1cc2c(C)c(Br)c(=O)oc2c(C)c1O | 189 to 190 °C
CNC(=O)n1nc(Oc2ncc(C(F)(F)F)cc2Cl)c(Cl)c1C | 81 to 83 °C
O=C(O)c1ccccc1S(=O)c1cc(Cl)ccc1C(=O)O (stereo unspecified) | 279 to 281 °C
O=Cc1ccc2c(c1F)OC(c1ccccc1)(c1ccccc1)O2 | 92 to 94 °C
O=S1(=O)N=C(NCCc2ccccc2)Nc2ccc(Cl)cc21 | 250 to 252 °C
Cc1cccc(-c2nc3ccc(Cl)nn3c2-c2ccnc(NC3CCCCC3)c2)c1 | 191 to 192 °C
C[N+]1([O-])CC(c2ccccn2)C(=O)c2ccccc21 (stereo unspecified) | 132 to 134 °C
COC(=O)C(=CC(=CN(C)C)c1ccc(Cl)cc1[N+](=O)[O-])[N+](=O)[O-] | 193 to 197 °C
CCOC(=O)C1CC(O)c2cc3c(cc2C1c1cc(OC)c(OC)c(OC)c1)OCO3 (stereo unspecified) | 151 to 152 °C
Cc1cc(N(N)c2ccccc2)nc(N)n1 | 173 to 174 °C
CN(C)C=Cc1ccc(OC(F)(F)F)cc1[N+](=O)[O-] | 59 °C
COc1nc2ccccc2cc1NC(=O)N1CCN(c2cc(F)cc(F)c2)CC1 | 158 to 159 °C
Cc1ccc(S(=O)(=O)N2CCCC(S(=O)(=O)c3cccc(Cl)c3)C2)cc1 (stereo unspecified) | 282 to 284 °C
O=C(NCc1ccccc1)c1nn(-c2ccc(Cl)cc2)c2c1C1CCC2C1 (stereo unspecified) | 112 to 115 °C
CCN(CC)CCNc1ccc(CNC)c2sc3ccc(O)cc3c(=O)c12 | 167 to 169 °C
Cn1cc(C2=C(c3c4n(c5ccccc35)CC(CCO)CC4)C(=O)NC2=O)c2ccccc21 (stereo unspecified) | 236 to 238 °C
CC(C)(C)OC(=O)NCCc1cccc(-c2nc(=O)c3ccccc3s2)n1 | 170 to 171 °C
c1cnn(Cc2ccc3c(c2)-c2[nH]nc(-c4ccsc4)c2C3)c1 | 245 to 247 °C
Cc1ccccc1C=Cc1ccccc1 | 92 to 93 °C
FC(F)(F)c1ccc(Cl)cc1CN1CCNc2ncc(-c3cn[nH]c3)cc21 | 271 °C
OCCc1cccc2c(-c3ccccc3)c(Br)oc12 | 108 to 112 °C
CCOC(=O)C(=CNc1sc(I)cc1C(=O)OC)C(=O)OCC | 163 to 164 °C
